How the values were obtained:
[1] = test system: MOLM14 D835Y cells; test: MOLM14 D835Y cell viability assay (Cell Titer Glo); type: cell-based
Procedure: (§1) Both cell lines have activated FLT3 receptors, each of which carry additional resistance mutations in the kinase domain (D835Y and F691L, respectively).
(§2) MOLM14 D835Y and MOLM14 F691L cells were grown in RPMI-1640 media supplemented with 20% fetal bovine serum (FBS). For viability/cytotoxicity assessments, cells were seeded into 1536-well white polystyrene tissue culture-treated Greiner plates using a Multidrop Combi dispenser (ThermoFisher), in final volume 5 μL of growth media per well, at a density of 1000 cells per well. After cell addition, 23 nL of test compound were transferred into individual wells (22 doses tested for each test compound, with a 1:2 dilution series starting at 10 μM) via a 1536 pin-tool. Bortezomib (final concentration 2.3 μM) was used as a positive control for cell cytotoxicity. Plates were incubated for 48 hours at standard incubator conditions covered by a stainless steel gasketed lid to prevent evaporation. 48 hours post compound addition, 3 μL of Cell Titer Glo (Promega) were added to each well and plates were incubated at room temperature for 15 minutes with the stainless-steel lid in place. Luminescence readings were taken using a Viewlux imager (PerkinElmer) with a 2 second exposure time per plate.

[2] = target: T1, FLT3 (Homo sapiens, UniProt P36888); test: RBC HotSpot Kinase Assay, FLT3; type: biochemical; design: purchased Reaction Biology (RBC), HotSpot kinase assay; conditions: isolated kinase, 33P-ATP
T1 sequence (P36888 27-993): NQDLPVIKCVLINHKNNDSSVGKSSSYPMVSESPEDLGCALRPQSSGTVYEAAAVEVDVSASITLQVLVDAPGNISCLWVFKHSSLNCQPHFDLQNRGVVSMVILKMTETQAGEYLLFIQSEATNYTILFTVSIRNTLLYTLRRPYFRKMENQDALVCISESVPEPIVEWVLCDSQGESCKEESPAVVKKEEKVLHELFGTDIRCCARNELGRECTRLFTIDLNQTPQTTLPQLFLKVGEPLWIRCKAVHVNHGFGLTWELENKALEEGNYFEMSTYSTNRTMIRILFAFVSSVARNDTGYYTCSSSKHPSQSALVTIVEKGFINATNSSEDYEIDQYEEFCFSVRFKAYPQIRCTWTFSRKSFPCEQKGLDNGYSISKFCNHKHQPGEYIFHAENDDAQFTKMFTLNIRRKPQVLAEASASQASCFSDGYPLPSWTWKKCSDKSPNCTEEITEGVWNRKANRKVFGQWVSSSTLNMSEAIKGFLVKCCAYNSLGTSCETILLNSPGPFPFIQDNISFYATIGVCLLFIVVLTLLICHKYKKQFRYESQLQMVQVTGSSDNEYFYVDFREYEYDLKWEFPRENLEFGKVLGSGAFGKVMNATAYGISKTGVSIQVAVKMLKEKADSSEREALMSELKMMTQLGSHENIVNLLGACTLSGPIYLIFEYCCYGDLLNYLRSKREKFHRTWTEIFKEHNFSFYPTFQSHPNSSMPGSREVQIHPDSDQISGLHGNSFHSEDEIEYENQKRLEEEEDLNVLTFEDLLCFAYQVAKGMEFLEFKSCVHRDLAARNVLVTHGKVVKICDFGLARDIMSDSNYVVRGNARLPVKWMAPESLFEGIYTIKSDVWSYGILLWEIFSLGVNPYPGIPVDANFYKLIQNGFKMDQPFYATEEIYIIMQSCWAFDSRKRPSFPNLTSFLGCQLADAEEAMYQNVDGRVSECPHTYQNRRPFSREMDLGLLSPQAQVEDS
Excerpt: (§3) This assay uses the isolated kinase enzyme. This assay is very useful for determining competition of the inhibitor for ATP and/or substrates and for measuring the kinetics of enzyme inhibition. […] Unlike kinase binding assays that measure competition for ATP, the HotSpot Kinase Assay is a functional assay that measures catalytic activity; as such it measures relative functional potency regardless of the mechanism of enzyme inhibition. This assay uses the form of the various enzymes that are easiest to express, which may not necessarily be the form of the enzyme that exist in the cell. (Sometimes the carboxy terminus has been truncated to aid in expression, or, if it is a receptor kinase, the enzyme itself is isolated from the other parts of the receptor that are involved in regulating kinase activity.)
(§4) The reagent used was as follows: Base Reaction buffer; 20 mM Hepes (pH 7.5), 10 mM MgCl2, 1 mM EGTA, 0.01% Brij35, 0.02 mg/ml BSA, 0.1 mM Na3VO4, 2 mM DTT, 1% DMSO. Required cofactors were added individually to each kinase reaction.
(§5) The reaction procedure was as follows: • 1) Substrates were prepared in freshly prepared Reaction Buffer. • 2) Any required cofactors were delivered to the substrate solution above. • 3) Kinase was delivered into the substrate solution and gently mixed. • 4) Compounds were delivered in 100% DMSO into the kinase reaction mixture by Acoustic technology (Echo550; nanoliter range), followed by incubation for 20 min at room temp. • 5)^33P-ATP was delivered into the reaction mixture to initiate the reaction. • 6) The mixture was incubated for 2 hours at room temperature. • 7) Kinase activity was detected by P81 filter-binding method.

[3] = target: T2, IRAK4 (Homo sapiens, UniProt Q9NWZ3); test: RBC HotSpot Kinase Assay, IRAK4; type: biochemical; design: purchased Reaction Biology (RBC), HotSpot kinase assay; conditions: isolated kinase, 33P-ATP
T2 sequence (Q9NWZ3 1-460): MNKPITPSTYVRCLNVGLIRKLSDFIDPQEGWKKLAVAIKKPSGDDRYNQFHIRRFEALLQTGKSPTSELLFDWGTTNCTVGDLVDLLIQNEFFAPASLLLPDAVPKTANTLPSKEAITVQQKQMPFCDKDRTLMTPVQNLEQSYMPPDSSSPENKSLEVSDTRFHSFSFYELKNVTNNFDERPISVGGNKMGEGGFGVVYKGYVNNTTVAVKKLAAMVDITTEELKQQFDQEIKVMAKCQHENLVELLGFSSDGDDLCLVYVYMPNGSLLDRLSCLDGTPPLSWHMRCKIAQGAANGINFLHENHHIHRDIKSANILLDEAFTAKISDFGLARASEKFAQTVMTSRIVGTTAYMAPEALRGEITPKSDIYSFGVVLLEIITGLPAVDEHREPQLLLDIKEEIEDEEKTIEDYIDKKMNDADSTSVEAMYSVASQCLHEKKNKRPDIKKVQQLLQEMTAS
Excerpt: as §3, §4, §5

[4] = test system: MOLM14 F691L cells; test: MOLM14 F691L cell viability assay (Cell Titer Glo); type: cell-based
Procedure: as §1, §2

[5] = target: T3, IRAK1 (Homo sapiens, UniProt P51617); test: RBC HotSpot Kinase Assay, IRAK1; type: biochemical; conditions: isolated kinase, 33P-ATP
T3 construct: purchased Reaction Biology (RBC), HotSpot kinase assay
Excerpt: as §3, §4, §5

T3 sequence (P51617 whole entry): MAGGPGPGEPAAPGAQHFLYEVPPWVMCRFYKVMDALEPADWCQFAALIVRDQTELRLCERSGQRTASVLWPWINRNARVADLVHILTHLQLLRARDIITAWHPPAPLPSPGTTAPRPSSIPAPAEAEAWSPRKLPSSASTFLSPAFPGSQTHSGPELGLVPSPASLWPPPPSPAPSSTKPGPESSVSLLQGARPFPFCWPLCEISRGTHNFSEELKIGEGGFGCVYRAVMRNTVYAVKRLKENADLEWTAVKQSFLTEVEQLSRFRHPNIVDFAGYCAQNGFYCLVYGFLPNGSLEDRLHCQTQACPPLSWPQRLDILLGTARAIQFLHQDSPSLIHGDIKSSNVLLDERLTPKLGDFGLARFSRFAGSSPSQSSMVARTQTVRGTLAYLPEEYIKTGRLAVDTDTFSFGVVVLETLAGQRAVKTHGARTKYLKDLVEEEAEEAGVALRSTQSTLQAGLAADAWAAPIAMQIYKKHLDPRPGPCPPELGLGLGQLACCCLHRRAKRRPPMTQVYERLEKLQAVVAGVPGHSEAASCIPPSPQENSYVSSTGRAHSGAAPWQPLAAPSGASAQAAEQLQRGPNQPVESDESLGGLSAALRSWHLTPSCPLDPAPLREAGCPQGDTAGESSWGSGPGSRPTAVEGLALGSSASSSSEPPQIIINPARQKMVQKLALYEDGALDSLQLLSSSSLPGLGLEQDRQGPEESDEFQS

Row | SMILES | IC50 ([1]; Homo sapiens, MOLM-14, 48 h) [nM] | IC50 [2] [nM] | IC50 [3] [nM] | IC50 ([4]; Homo sapiens, MOLM-14, 48 h) [nM] | IC50 [5] [nM] | IC50 ([1]; 48 hours) [nM] | IC50 ([4]; 48 hours) [nM]
1 | F[C@H]1CNC[C@@H]1Nc1cccc(-c2cnc3cnccn23)n1 [Compound 68, N-((3S,4S)-4-fluoropyrrolidin-3-yl)-6-(imidazo[1,2-a]pyrazin-3-yl)pyridin-2-amine] | 47 | < 0.5 | 4 | 473 | 727 | – | –
2 | FC(F)(F)COc1cn2c(-c3cccc(N[C@H]4CNCC45CC5)n3)cnc2cn1 [Compound 40, (R)-N-(6-(6-(2,2,2-trifluoroethoxy)imidazo[1,2-a]pyrazin-3-yl)pyridin-2-yl)-5-azaspiro[2.4]heptan-7-amine] | 23 | < 0.5 | 2 | 152 | 101 | – | –
3 | O=S1(=O)CCCCN1c1cn2c(-c3nc(N[C@H]4CNC[C@@H]4F)c(F)cc3F)cnc2cn1 [Compound 102, 2-(3-(3,5-difluoro-6-(((3S,4S)-4-fluoropyrrolidin-3-yl)amino)pyridin-2-yl)imidazo[1,2-a]pyrazin-6-yl)-1,2-thiazinane 1,1-dioxide] | 386 | 2 | 6 | 4330 | 281 | – | –
4 | O=C1NCCN1c1cn2c(-c3cccc(N[C@@H]4CCCNC4)n3)cnc2cn1 [Compound 116, (R)-1-(3-(6-(piperidin-3-ylamino)pyridin-2-yl)imidazo[1,2-a]pyrazin-6-yl)imidazolidin-2-one] | 39 | 1 | 14 | 193 | 125 | – | –
5 | O=C1COCCN1c1cn2c(-c3cccc(N[C@H]4CNCC[C@@H]4F)n3)cnc2cn1 [Compound 112, 4-(3-(6-(((3S,4S)-4-fluoropiperidin-3-yl)amino)pyridin-2-yl)imidazo[1,2-a]pyrazin-6-yl)morpholin-3-one] | 49 | < 0.5 | 140 | 183 | 1860 | – | –
6 | O=S1(=O)CCCN1c1cn2c(-c3nc(N[C@H]4CNC[C@@H]4F)c(F)cc3F)cnc2cn1 [Compound 105, 2-(3-(3,5-difluoro-6-(((3S,4S)-4-fluoropyrrolidin-3-yl)amino)pyridin-2-yl)imidazo[1,2-a]pyrazin-6-yl)isothiazolidine 1,1-dioxide] | 55 | < 0.5 | 1 | 686 | 22 | – | –
7 | O=C1COCCN1c1cn2c(-c3cccc(N[C@@H]4CCCNC4)n3)cnc2cn1 [Compound 111, (R)-4-(3-(6-(piperidin-3-ylamino)pyridin-2-yl)imidazo[1,2-a]pyrazin-6-yl)morpholin-3-one] | 86 | 0.5 | 136 | 344 | 2130 | – | –
8 | CC(C)Oc1cn2c(-c3cccc(N[C@H]4CNCC[C@@H]4F)n3)cnc2cn1 [compound 132, N-((3S,4S)-4-fluoropiperidin-3-yl)-6-(6-isopropoxyimidazo[1,2-a]pyrazin-3-yl)pyridin-2-amine] | 19 | < 0.5 | 2 | 119 | 144 | – | –
9 | O=C1COCCN1c1cn2c(-c3cccc(N[C@H]4CNC[C@@H]4F)n3)cnc2cn1 [Compound 110, 4-(3-(6-(((3S,4S)-4-fluoropyrrolidin-3-yl)amino)pyridin-2-yl)imidazo[1,2-a]pyrazin-6-yl)morpholin-3-one] | 154 | 3 | 98 | 1450 | 4240 | – | –
10 | Cn1cc(-c2cn3c(-c4cccc(N[C@@H]5CCNC5)n4)cnc3cn2)cn1 [Compound 49, (R)-6-(6-(1-methyl-1H-pyrazol-4-yl)imidazo[1,2-a]pyrazin-3-yl)-N-(pyrrolidin-3-yl)pyridin-2-amine] | 9 | < 0.5 | 1 | – | 196 | – | –

Now from value to compound:

Row | IC50 ([1]; Homo sapiens, MOLM-14, 48 h) [nM] | IC50 [2] [nM] | IC50 [3] [nM] | IC50 ([4]; Homo sapiens, MOLM-14, 48 h) [nM] | IC50 [5] [nM] | IC50 ([1]; 48 hours) [nM] | IC50 ([4]; 48 hours) [nM] | SMILES
11 | 17 | < 0.5 | 3 | 122 | 21 | – | – | O=S1(=O)CCCN1c1cn2c(-c3nc(N[C@H]4CNCC[C@@H]4F)c(F)cc3F)cnc2cn1 [Compound 106, 2-(3-(3,5-difluoro-6-(((3S,4S)-4-fluoropiperidin-3-yl)amino)pyridin-2-yl)imidazo[1,2-a]pyrazin-6-yl)isothiazolidine 1,1-dioxide]
12 | – | 2 | 7 | – | 16 | 96 | 817 | CC(O)(c1cn2c(-c3nc(N[C@@H]4CCCNC4)c(F)cc3F)cnc2cn1)C(F)(F)F (single isomer, unassigned) [Compound 90]
13 | – | 1 | 15 | – | 69 | 97 | 217 | CC(O)(c1cn2c(-c3cc(F)cc(N[C@H]4CNCC[C@@H]4F)n3)cnc2cn1)C(F)(F)F (single isomer, unassigned) [Compound 88]
14 | – | < 0.5 | < 0.5 | 649 | 9 | 41 | – | CC(O)(c1cn2c(-c3nc(N[C@@H]4CCCNC4)c(F)cc3F)cnc2cn1)C(F)(F)F (single isomer, unassigned) [Compound 89]
15 | – | 0.9 | 65 | 365 | 144 | 205 | – | CC(O)(c1cn2c(-c3cc(F)cc(N[C@H]4CNCC[C@@H]4F)n3)cnc2cn1)C(F)(F)F (single isomer, unassigned) [Compound 86]
16 | 84 | – | – | 237 | – | – | – | CC(O)(c1cn2c(-c3cccc(N[C@@H]4CCCNC4)n3)cnc2cn1)C(F)(F)F (stereo partly drawn) [Compound 79, 1,1,1-trifluoro-2-(3-(6-((R)-piperidin-3-ylamino)pyridin-2-yl)imidazo[1,2-a]pyrazin-6-yl)propan-2-ol]

From US12612410B2 (CHILDREN'S HOSPITAL MEDICAL CENTER, priority 2020, dated 2026)
